In patent publication US20260325533A1, “CDK INHIBITOR COMPOUNDS” (ALEKSIA THERAPEUTICS, INC., priority 2023, published 2026) one finds IC50 data, which are given here for 8 molecules.

Like-named read-outs stand apart in the source and are kept apart here.

Common to all, as to format: biochemical
One assay has as its target CDK1/CCNB1 (Homo sapiens, UniProt P06493). Nature of the assay: CDK1 homogeneous time-resolved fluorescence (HTRF) kinase assay. The following applies: CDK1/CCNB. The essentials: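 Compounds, titrated 11 points in half-log steps typically from 10 μM, were incubated with enzyme for 20 min before ATP (1 mM) and ULight-labelled eIF4E-binding protein 1 peptide (50 nM) started a 60-min reaction at 23 °C. Phosphopeptide was detected by europium-antibody TR-FRET and IC50 values were derived.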
For orientation: TR-FRET usually uses a lanthanide donor and a delayed reading to cut background.

The target of another assay is CDK2/CCNE1 (Homo sapiens, UniProt P24941). Put plainly: CDK2 homogeneous time-resolved fluorescence (HTRF) kinase assay. As to conditions: CDK2/CCNE; x = IC50 <25 nM; read-out: CDK2/CCNE IC50 (<25 nM). The essentials: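 3 nM CDK2/CCNE1 was preincubated with compound for 20 min at 23 °C in HEPES buffer (pH not stated), then reacted 60 min with 1 mM ATP and 50 nM ULight-4E-BP1 (Thr37/46) peptide. After EDTA stop, Eu-anti-phospho-4E-BP1 antibody (2 nM) was added for 60 min and TR-FRET read at 665 nm.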

The target in the next assay is CDK6/CCND1 (Homo sapiens, UniProt Q00534). Put plainly: CDK6 homogeneous time-resolved fluorescence (HTRF) kinase assay. As to conditions: CDK6/CCND. The essentials: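 1 nM enzyme, 1 mM ATP, 50 nM ULight-4E-BP1 (Thr37/46) peptide, 1% DMSO; 20 min compound preincubation, 60 min reaction, 23 °C. EDTA stop, 2 nM Eu-anti-phospho-4E-BP1 antibody 60 min. TR-FRET 665 nm (or 665/615 ratio); IC50 from 11-point half-log titration, top 10 μM.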
CDK6/CCND1, sequence (Q00534 whole entry): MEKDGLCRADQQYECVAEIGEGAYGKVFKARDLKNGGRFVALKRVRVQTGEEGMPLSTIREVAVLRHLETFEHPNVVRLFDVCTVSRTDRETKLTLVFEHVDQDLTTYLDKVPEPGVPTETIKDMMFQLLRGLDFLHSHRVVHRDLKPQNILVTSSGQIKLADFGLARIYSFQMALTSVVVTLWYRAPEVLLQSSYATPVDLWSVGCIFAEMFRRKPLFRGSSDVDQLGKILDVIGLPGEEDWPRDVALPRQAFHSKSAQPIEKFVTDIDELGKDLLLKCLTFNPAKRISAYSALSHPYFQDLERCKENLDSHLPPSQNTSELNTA
CDK6/CCND1, sequence (P24385 whole entry partner): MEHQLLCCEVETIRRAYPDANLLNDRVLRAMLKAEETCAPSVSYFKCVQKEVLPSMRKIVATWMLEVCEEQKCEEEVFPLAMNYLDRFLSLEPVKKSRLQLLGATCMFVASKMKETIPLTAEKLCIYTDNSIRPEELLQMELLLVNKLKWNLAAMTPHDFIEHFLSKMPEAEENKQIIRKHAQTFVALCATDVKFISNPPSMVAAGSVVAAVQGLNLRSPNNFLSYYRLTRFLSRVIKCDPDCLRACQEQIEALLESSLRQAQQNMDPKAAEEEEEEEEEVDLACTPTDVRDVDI

In a further assay the target is CDK4/CCND3 (Homo sapiens, UniProt P11802). Put plainly: CDK4 homogeneous time-resolved fluorescence (HTRF) kinase assay. As to conditions: CDK4/CCND. The essentials:
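Compounds were preincubated with 1.5 nM CDK4/CCND3 for 20 min at 23 °C in HEPES buffer (pH not given), then reacted 60 min with 1 mM ATP and 50 nM ULight-4E-BP1 (Thr37/46) peptide. EDTA stop, Eu-anti-phospho-4E-BP1 detection; 665/615 nm ratio; IC50 from 11-point half-log titrations from 10 μM.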

Where [1] appears, read: x = IC50 25-250 nM, read-out: CDK1/CCNB IC50 (25-250 nM).
The mark [2] stands for this setting: x = IC50 >250 nM, read-out: CDK6/CCND IC50 (>250 nM column).
Where [3] appears, read: x = IC50 25-250 nM, read-out: CDK4/CCND IC50 (25-250 nM).
[4] abbreviates: x = IC50 25-250 nM, read-out: CDK6/CCND IC50 (25-250 nM).

CDK1/CCNB1, sequence (P06493 whole entry): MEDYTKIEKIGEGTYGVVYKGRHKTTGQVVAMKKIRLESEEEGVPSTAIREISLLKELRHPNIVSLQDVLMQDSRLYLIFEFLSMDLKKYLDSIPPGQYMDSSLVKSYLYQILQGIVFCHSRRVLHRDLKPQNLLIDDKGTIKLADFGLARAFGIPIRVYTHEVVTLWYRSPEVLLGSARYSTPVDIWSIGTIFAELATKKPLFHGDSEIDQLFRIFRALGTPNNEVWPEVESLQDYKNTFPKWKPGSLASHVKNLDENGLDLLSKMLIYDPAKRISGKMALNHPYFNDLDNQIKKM
CDK1/CCNB1, sequence (P14635 whole entry partner): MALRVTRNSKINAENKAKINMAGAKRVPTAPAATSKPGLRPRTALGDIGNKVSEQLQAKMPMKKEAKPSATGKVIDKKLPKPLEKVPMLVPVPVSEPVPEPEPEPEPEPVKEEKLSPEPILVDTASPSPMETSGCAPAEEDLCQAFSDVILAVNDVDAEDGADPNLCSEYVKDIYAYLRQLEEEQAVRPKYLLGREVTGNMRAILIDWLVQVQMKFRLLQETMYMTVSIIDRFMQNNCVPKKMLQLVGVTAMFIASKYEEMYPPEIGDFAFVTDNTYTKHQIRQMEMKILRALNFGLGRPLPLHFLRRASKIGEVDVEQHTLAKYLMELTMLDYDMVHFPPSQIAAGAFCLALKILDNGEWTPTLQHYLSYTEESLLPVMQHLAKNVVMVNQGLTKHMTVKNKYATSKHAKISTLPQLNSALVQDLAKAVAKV
CDK4/CCND3, sequence (P11802 whole entry): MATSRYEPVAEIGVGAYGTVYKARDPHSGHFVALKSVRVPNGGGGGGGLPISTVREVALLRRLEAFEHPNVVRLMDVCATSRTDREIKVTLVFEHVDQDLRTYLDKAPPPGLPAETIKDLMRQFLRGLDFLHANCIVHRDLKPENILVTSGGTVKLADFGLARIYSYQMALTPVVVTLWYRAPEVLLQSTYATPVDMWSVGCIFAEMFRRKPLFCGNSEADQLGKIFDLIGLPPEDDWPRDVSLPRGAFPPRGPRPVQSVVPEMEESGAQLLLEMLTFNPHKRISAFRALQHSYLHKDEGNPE
CDK4/CCND3, sequence (P30281 whole entry partner): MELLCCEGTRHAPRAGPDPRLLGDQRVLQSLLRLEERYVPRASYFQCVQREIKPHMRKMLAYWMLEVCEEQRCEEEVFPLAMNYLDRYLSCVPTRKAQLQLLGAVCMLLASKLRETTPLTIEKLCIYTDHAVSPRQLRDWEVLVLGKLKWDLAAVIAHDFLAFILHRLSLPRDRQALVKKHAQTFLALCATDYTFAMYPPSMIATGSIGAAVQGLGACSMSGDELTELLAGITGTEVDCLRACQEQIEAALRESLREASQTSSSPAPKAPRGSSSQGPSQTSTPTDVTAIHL

On to `N=S(=O)(c1ccc(Nc2cc3c(C#Cc4ccc5c(c4)NC(=O)C54CCC4)nccc3cn2)cc1)C1CC1` (single isomer, unassigned) [Ex 344, 6'-((7-((4-(cyclopropanesulfonimidoyl)phenyl)amino)-2,6-naphthyridin-1-yl)ethynyl)spiro[cyclobutane-1,3'-indolin]-2'-one], for which the IC50 on CDK1/CCNB1 (setting [1]) was 25 to 250 nM; at CDK2/CCNE1 it was less than 25 nM; at CDK6/CCND1 (setting [2]), greater than 250 nM; at CDK4/CCND3 (setting [3]), 25 to 250 nM.
Consider `COc1cc(S(=N)(=O)C(C)C)ccc1Nc1cc2c(C#Cc3ccc4c(c3)NC(=O)C43CCC3)nccc2cn1` (single isomer, unassigned) [Ex 345, 6'-((7-((2-methoxy-4-(propan-2-ylsulfonimidoyl)phenyl)amino)-2,6-naphthyridin-1-yl)ethynyl)spiro[cyclobutane-1,3'-indolin]-2'-one], for which the IC50 at CDK1/CCNB1 (x = IC50 >250 nM, read-out: CDK1/CCNB IC50 (>250 nM column)) was greater than 250 nM; on CDK2/CCNE1 it was less than 25 nM; on CDK6/CCND1 (setting [2]), greater than 250 nM; on CDK4/CCND3 (x = IC50 >250 nM, read-out: CDK4/CCND IC50 (>250 nM column)) it was greater than 250 nM.
Take `CC(C)S(=N)(=O)c1ccc(Nc2cc3c(C#Cc4cc5c(cc4N)C(C)(C)C(=O)N5)nccc3cn2)cc1` (single isomer, unassigned) [Ex 349, 5-amino-3,3-dimethyl-6-((7-((4-(propan-2-ylsulfonimidoyl)phenyl)amino)-2,6-naphthyridin-1-yl)ethynyl)indolin-2-one]: the IC50 at CDK1/CCNB1 (setting [1]) was 25 to 250 nM; at CDK2/CCNE1, less than 25 nM; at CDK6/CCND1 (setting [2]), greater than 250 nM; on CDK4/CCND3 (setting [3]), 25 to 250 nM.
For `N=S(=O)(c1ccc(Nc2cc3c(C#Cc4ccc5c(c4)NC(=O)C54CC4)nccc3cn2)cc1)C1CCC1` (single isomer, unassigned) [Ex 350, 6'-((7-((4-(cyclobutanesulfonimidoyl)phenyl)amino)-2,6-naphthyridin-1-yl)ethynyl)spiro[cyclopropane-1,3'-indolin]-2'-one], the IC50 at CDK1/CCNB1 (setting [1]) was 25 to 250 nM; on CDK2/CCNE1 it was less than 25 nM; at CDK6/CCND1 (setting [4]) it was 25 to 250 nM; on CDK4/CCND3 (x = IC50 <25 nM, read-out: CDK4/CCND IC50 (<25 nM)) it was less than 25 nM.
Turning to `CC(C)S(=N)(=O)c1ccc(Nc2cc3c(C#Cc4ccc5c(c4)NC(=O)C54CC4)nccc3cn2)cc1` (single isomer, unassigned) [Ex 354, 6'-((7-((4-(propan-2-ylsulfonimidoyl)phenyl)amino)-2,6-naphthyridin-1-yl)ethynyl)spiro[cyclopropane-1,3'-indolin]-2'-one], the IC50 was 25 to 250 nM at CDK1/CCNB1 (setting [1]), less than 25 nM on CDK2/CCNE1, 25 to 250 nM on CDK6/CCND1 (setting [4]) and 25 to 250 nM at CDK4/CCND3 (setting [3]).
In the case of `CS(=N)(=O)c1ccc(Nc2cc3c(C#Cc4ccc5c(c4)NC(=O)C54CC4)nccc3cn2)cc1` (single isomer, unassigned) [Ex 358, 6'-((7-((4-(S-methylsulfonimidoyl)phenyl)amino)-2,6-naphthyridin-1-yl)ethynyl)spiro[cyclopropane-1,3'-indolin]-2'-one], the IC50 was 25 to 250 nM on CDK1/CCNB1 (setting [1]), less than 25 nM at CDK2/CCNE1, greater than 250 nM on CDK6/CCND1 (setting [2]) and 25 to 250 nM at CDK4/CCND3 (setting [3]).
For `N=S(=O)(c1ccc(Nc2cc3c(C#Cc4ccc5c(c4)NC(=O)C54CCC4)nccc3cn2)cc1)C1CCC1` (single isomer, unassigned) [Ex 363, 6'-((7-((4-(cyclobutanesulfonimidoyl)phenyl)amino)-2,6-naphthyridin-1-yl)ethynyl)spiro[cyclobutane-1,3'-indolin]-2'-one], the IC50 is 25 to 250 nM on CDK1/CCNB1 (setting [1]), less than 25 nM at CDK2/CCNE1, 25 to 250 nM at CDK6/CCND1 (setting [4]) and 25 to 250 nM at CDK4/CCND3 (setting [3]).
Regarding `CCS(=N)(=O)c1ccc(Nc2cc3c(C#Cc4ccc5c(c4)NC(=O)C54CCC4)nccc3cn2)cc1` (single isomer, unassigned) [Ex 366, 6'-((7-((4-(ethylsulfonimidoyl)phenyl)amino)-2,6-naphthyridin-1-yl)ethynyl)spiro[cyclobutane-1,3'-indolin]-2'-one], the IC50 at CDK1/CCNB1 (setting [1]) was 25 to 250 nM; at CDK2/CCNE1 it was less than 25 nM; at CDK6/CCND1 (setting [4]), 25 to 250 nM; on CDK4/CCND3 (setting [3]) it was 25 to 250 nM.
